Reference: the NIST ThermoML archive (doi:10.1021/je0601309)
± gives the expanded uncertainty stated by the source.

Conditions: Liquid; for mass density: 298.15 K, 101.33 kPa

CCO [ethanol]
mass density: 785.23 ± 0.31 kg/m3
vapor or sublimation pressure (329.7 K, Ebulliometric method (Recirculating still)): 40 ± 0.42 kPa
vapor or sublimation pressure (336.11 K, Ebulliometric method (Recirculating still)): 53.33 ± 0.46 kPa
vapor or sublimation pressure (341.28 K, Ebulliometric method (Recirculating still)): 66.66 ± 0.56 kPa
vapor or sublimation pressure (345.65 K, Ebulliometric method (Recirculating still)): 79.99 ± 0.65 kPa
vapor or sublimation pressure (349.45 K, Ebulliometric method (Recirculating still)): 93.32 ± 0.7 kPa

CO [methanol]
mass density: 786.67 ± 0.31 kg/m3
vapor or sublimation pressure (315.74 K, Ebulliometric method (Recirculating still)): 40 ± 0.4 kPa
vapor or sublimation pressure (315.87 K, Ebulliometric method (Recirculating still)): 40 ± 0.4 kPa
vapor or sublimation pressure (322.17 K, Ebulliometric method (Recirculating still)): 53.33 ± 0.54 kPa
vapor or sublimation pressure (322.25 K, Ebulliometric method (Recirculating still)): 53.33 ± 0.54 kPa
vapor or sublimation pressure (327.37 K, Ebulliometric method (Recirculating still)): 66.66 ± 0.67 kPa
vapor or sublimation pressure (327.45 K, Ebulliometric method (Recirculating still)): 66.66 ± 0.67 kPa
vapor or sublimation pressure (331.75 K, Ebulliometric method (Recirculating still)): 79.99 ± 0.8 kPa
vapor or sublimation pressure (331.84 K, Ebulliometric method (Recirculating still)): 79.99 ± 0.8 kPa
vapor or sublimation pressure (335.56 K, Ebulliometric method (Recirculating still)): 93.32 ± 0.94 kPa
vapor or sublimation pressure (335.66 K, Ebulliometric method (Recirculating still)): 93.32 ± 0.94 kPa

COC(=O)OC [dimethyl carbonate]
mass density: 1063.38 ± 0.16 kg/m3
vapor or sublimation pressure (336.68 K): 40 ± 0.35 kPa
vapor or sublimation pressure (344.38 K): 53.33 ± 0.39 kPa
vapor or sublimation pressure (350.66 K): 66.66 ± 0.46 kPa
vapor or sublimation pressure (356.01 K): 79.99 ± 0.54 kPa
vapor or sublimation pressure (360.68 K): 93.32 ± 0.57 kPa
